From PMC11640836, “Aminomethylmorpholino Nucleosides as Novel Inhibitors of PARP1 and PARP2: Experimental and Molecular Modeling Analyses of Their Selectivity and Mechanism of Action” (International Journal of Molecular Sciences, 2024) come the findings set out here.

Where two headings read alike, the source gives them in different places.

For assay [1], the target named is T1, PARP2 (supplemented with HPF1 or not) (Mus musculus, UniProt O88554).
T1 construct: made in house; host or cells: insect cells (PARP2)
T1 sequence (O88554 whole entry): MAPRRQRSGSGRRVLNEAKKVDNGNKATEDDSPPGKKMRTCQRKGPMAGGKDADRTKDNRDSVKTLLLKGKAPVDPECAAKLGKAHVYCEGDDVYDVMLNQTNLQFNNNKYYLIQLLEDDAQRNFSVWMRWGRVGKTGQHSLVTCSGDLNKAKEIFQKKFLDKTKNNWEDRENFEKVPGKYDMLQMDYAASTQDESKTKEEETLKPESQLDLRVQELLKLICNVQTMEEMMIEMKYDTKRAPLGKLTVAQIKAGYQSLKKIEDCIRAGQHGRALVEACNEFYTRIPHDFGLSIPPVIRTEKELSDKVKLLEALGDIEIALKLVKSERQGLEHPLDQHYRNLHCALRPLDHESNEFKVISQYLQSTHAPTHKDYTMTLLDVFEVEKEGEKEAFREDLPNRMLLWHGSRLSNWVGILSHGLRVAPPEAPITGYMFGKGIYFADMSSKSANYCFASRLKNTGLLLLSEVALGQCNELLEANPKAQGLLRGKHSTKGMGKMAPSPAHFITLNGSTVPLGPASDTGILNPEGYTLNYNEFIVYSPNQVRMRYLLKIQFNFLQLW
The assay can be described thus: PARP2 inhibition in the absence and presence of HPF1 (automodification, SDS-PAGE). Format: biochemical, murine. The settings on record: 500 nM PARP2, 1 µM HPF1. On the procedure: PARP1/PARP2 autopoly(ADP-ribosyl)ation was performed in a standard 20 μL reaction mixture containing 50 mM of Tris-HCl, a pH of 8.0, 100 mM of NaCl, 10 mM of MgCl2, 1 mM of DTT, 10 µM of [^32P]NAD^+, 1 µM of gap-DNA (a 32-mer duplex with a medially located 1-nucleotide gap), 500 nM of PARP1/PARP2 (supplemented with 1 µM of HPF1 or not), and an inhibitor of interest at concentrations specified in Figure 4 and Figure S7. The reaction was initiated by adding a mixture of [^32P]NAD^+ and DNA to a protein-inhibitor mixture pre-assembled on ice. After incubating the mixtures at 37 °C for the indicated time periods, the reactions were terminated by the addition of an SDS-PAGE sample buffer and heating for 2 min at 90 °C. The reaction products were analyzed using 10% SDS-PAGE with the subsequent phosphor imaging of a Coomassie brilliant blue stained gel. Protein bands labeled with [^32P]ADP-ribose were quantified using Quantity One 4.6.7 Basic software. The residual activity (%) was determined as the level of PARP automodification in the presence of an inhibitor normalized to the respective level in the control sample containing no inhibitor.

For assay [2], the target named is T2, PARP2 (Mus musculus, UniProt O88554).
T2 construct: made in house; host or cells: insect cells
T2 sequence (O88554 whole entry): as above
Put plainly: PARP2 autopoly(ADP-ribosyl)ation (autoPARylation) enzyme assay with [32P]NAD+. It is filed as biochemical, murine. On the procedure: (§1) Human recombinant poly(ADP-ribose) polymerase 1 (PARP1) and murine poly(ADP-ribose) polymerase 2 (PARP2) were expressed in insect cells and purified as previously described. Radioactively labeled [^32P]NAD^+ was synthesized from [α-^32P]ATP, according to the previously developed method. The reaction of autopoly(ADP-ribosyl)ation was performed as follows. For PARP1, the reaction mixture contained 50 mM of Tris-HCl, a pH of 8.0, 10 mM of MgCl2, 150 mM of NaCl, 7 mM of β-mercaptoethanol, 2 A260/mL of activated DNA, 0.3 mM of [^32P]NAD^+, and 1 of the tested compounds. The reaction was initiated by adding PARP1 up to 200 nM, and the reaction mixtures were incubated at 37 °C for 2 min. For PARP2, the reaction mixture contained 50 mM of Tris-HCl, a pH of 8.0, 3 mM of spermine, 150 mM of NaCl, 7 mM of β-mercaptoethanol, 2 A260/mL of activated DNA, 0.6 mM of [^32P]NAD^+, and 1 of the tested compounds. The reaction was initiated by adding PARP2 up to 800 nM, and the reaction mixtures were incubated at 37 °C for 5 min. The tested compounds were added at six fixed concentrations, specified for each of them. The reaction was stopped by dropping 10 µL aliquots onto Whatman 1 filter papers soaked in 5% trichloroacetic acid (TCA). The filters were washed 4 times with 150 mL of 5% TCA and dried in the air after the removal of TCA with 90% ethanol. The introduction of radioactivity into the reaction product was quantified using a Typhoon FLA 9500 imager (GE Healthcare, Chicago, IL, USA). The half-maximal inhibitory concentration (IC50) values were determined using a six-point concentration response curve in three independent experiments.

Assay [3] has as its target T3, PARP1 (Homo sapiens, UniProt P09874).
T3 construct: made in house; host or cells: insect cells
Put plainly: Steady-state kinetic analysis of the PARP1 enzymatic reaction. Format: biochemical. Particulars: for Type of inhibition: Vmax decreased, KM increased. Here is the method:
The four efficient inhibitors of PARP1 (compounds 8, 12, 13, and 14) were further examined by detailed kinetic experiments to determine the type of inhibition and the inhibition constants. […] The kinetics experiments of the PARylation reaction were performed at varied concentrations of the NAD^+ substrate and three–four different fixed concentrations of the inhibitor. The kinetic parameters of the reaction (Vmax and KM) were calculated by fitting the Michaelis–Menten equation to the kinetic data. The type of inhibition was determined by analyzing the dependences of Vmax and KM on the concentration of the inhibitor in linearizing coordinates (Figure S3). All the compounds had decreased Vmax and increased KM values as the inhibitor concentration increased (panels A−E), indicating a mixed type of inhibition, which was further evidenced by the double reciprocal plots of kinetic data (panel F). From these experiments, the inhibition constants reflecting the affinity of inhibitors to the NAD^+ binding pocket of free enzymes were determined (Table 2).
To determine the apparent maximum rate of enzymatic reaction (Vmax), Michaelis constant (KM), and possible inhibition mechanism, steady-state kinetic experiments were performed at […] fixed concentrations of the substrate, in the absence and presence of different fixed concentrations of the inhibitor. The standard reaction mixtures (10 μL) contained 100 μM, 300 μM, 500 μM, 1 mM, or 2 mM NAD^+; a tested PARP1/PARP2 inhibitor specified for each compound (Figure S3); the recombinant human enzyme PARP1 (200 nM) or murine PARP2 (800 nM); and reaction buffer components (specified in the previous subsection). The reaction was performed as described in the previous subsection. The raw data (kinetic curves) were obtained in three independent experiments and statistically processed with OriginPro 8.6.0 software. […]
F) Graphical representation in double reciprocal plots. The inhibitor concentrations (µM) are indicated right to each panel.
Figure S3. Graphical representation of inhibition type determination for PARP1 and PARP2 with selected compounds.
The Ki and Ki(2) values presented in Table 2 in the main text and Table S1 were calculated using the equations:
Ki = Ci⁄ Ki (2) = CiV Vmax ∗ൗ−1
ቂ(Vmax Km )൘ቃ(Vmax ∗ Km ∗)⁄ −1 where Vmax (Vmax*) – maximal reaction velocity in th e absence (presence) of inhibitor; Km (Km*) – Michaelis constant in the absence (presence) of inhibitor; Ci – the inhibitor concentration.
(also on this page, place not known: Ci )⁄ (Vmax ∗ )⁄൘ቃ − Ki(2) Ci V ∗ൗ− 1 the Vmax KM 3000 0 1 0 250 [ 32 P]ADP-ribose, counts x 10 -3 NAD + ,)
(1 picture or pasted object on this page, not shown here)

In assay [4] the target is T3, PARP1. Put plainly: PARP1 autopoly(ADP-ribosyl)ation (autoPARylation) enzyme assay with [32P]NAD+. It is filed as biochemical. Here is the method:
as §1

Where [5] appears, read: mixed-type inhibition, read-out: Ki (affinity for the free enzyme).
The mark [6] stands for this setting: read-out: Ki(2) (affinity for the enzyme complex with NAD+ substrate).

T3 sequence (P09874 whole entry): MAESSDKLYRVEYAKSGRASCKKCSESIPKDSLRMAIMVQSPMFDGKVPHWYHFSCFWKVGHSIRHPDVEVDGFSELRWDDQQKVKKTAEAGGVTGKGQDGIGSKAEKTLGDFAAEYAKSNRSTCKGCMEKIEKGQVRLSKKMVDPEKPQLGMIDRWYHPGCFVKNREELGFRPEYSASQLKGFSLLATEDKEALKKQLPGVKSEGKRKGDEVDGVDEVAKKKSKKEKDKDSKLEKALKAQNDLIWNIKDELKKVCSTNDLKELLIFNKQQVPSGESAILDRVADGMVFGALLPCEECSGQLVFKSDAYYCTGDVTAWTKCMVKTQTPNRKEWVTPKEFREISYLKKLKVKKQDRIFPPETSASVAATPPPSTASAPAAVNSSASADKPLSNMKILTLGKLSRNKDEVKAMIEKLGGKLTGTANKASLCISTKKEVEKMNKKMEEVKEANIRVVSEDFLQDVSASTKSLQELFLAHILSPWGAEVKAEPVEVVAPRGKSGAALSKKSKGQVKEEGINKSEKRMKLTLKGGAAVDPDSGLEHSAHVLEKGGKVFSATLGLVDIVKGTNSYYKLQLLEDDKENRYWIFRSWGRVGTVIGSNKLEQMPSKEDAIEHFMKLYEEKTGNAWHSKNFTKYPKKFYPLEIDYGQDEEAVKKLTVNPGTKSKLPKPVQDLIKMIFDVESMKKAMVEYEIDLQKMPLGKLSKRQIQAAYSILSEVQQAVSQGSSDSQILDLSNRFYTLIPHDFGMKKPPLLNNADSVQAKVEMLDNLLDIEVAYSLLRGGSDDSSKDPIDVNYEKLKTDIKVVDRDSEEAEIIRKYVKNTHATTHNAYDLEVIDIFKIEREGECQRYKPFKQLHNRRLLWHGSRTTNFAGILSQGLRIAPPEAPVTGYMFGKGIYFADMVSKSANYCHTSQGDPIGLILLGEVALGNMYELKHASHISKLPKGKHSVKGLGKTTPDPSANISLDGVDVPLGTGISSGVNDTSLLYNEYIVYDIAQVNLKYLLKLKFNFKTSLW

A word on the IC50: it is the concentration that inhibits the measured activity by half. Usually Ki stands for the dissociation constant of the complex between target and ligand, obtained from inhibition or displacement. Turning to `Cc1cn([C@H]2CNC[C@@H](CN)O2)c(=O)[nH]c1=O` [Compound 8], the “Impact of HPF1 on the inhibition potency against PARP2” value in assay [1] is “no impact of HPF1”. For the same molecule, the figures for the IC50 in assay [2] and in assay [4] were 133 ± 8 µM and 10 ± 3 µM, respectively. Moreover, in assay [3], the Type of inhibition entry was “mixed-type inhibition”. Further, the Ki was found to be 12 ± 2 µM in assay [3] (setting [5]) and 40 ± 8 µM in assay [3] (setting [6]).
As for `NC[C@@H]1CNC[C@H](n2cc(I)c(=O)[nH]c2=O)O1` [Compound 14], the “Impact of HPF1 on the inhibition potency against PARP2” value in assay [1] was “no impact of HPF1”. Further, the IC50 in assay [2] (0.6 mM [32P]NAD+, means ±SDs of three independent experiments, read-out: IC50, PARP2 activity in the autoPARylation reaction) came to 63 ± 9 µM; in assay [4] (0.3 mM [32P]NAD+, means ±SDs of three independent experiments, read-out: IC50, PARP1 activity in the autoPARylation reaction), 12 ± 2 µM. Besides, the Type of inhibition entry in assay [3] was “mixed-type inhibition”. The Ki in assay [3] (setting [5]) turned out to be 15 ± 3 µM; in assay [3] (setting [6]), 50 ± 10 µM.
